Source: PubChem BioAssay (NCI)
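Assay format: 96-well plates, 48-hour exposure. GI50: concentration for 50% inhibition of growth. Definition used: TGI = concentration required for complete inhibition of growth.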

Key:
Experiment in all cases: inhibition of tumour cell growth, NCI panel, 48 h
[1] = system: HOP-18 NSCLC
[2] = system: LXFL 529 NSCLC
[3] = system: MALME-3M melanoma
[4] = system: OVCAR-5 ovarian
[5] = system: SN12C renal
[6] = system: TK-10 renal
[7] = system: U251 CNS
[8] = system: RPMI-8226 leukemia
[9] = system: SK-MEL-2 melanoma
[10] = system: HS 578T breast

Work on `CC(=O)[O-].CCN(CC)c1ccc(C=NCCN=Cc2ccc(N(CC)CC)cc2[O-])c([O-])c1.[Mn+3]` yielded a GI50 [1] of 18.7 µM, a TGI [1] of 35.5 µM and a GI50 [2] of 22.5 µM. The TGI [2] was 44.1 µM, the GI50 [3] was 18.4 µM and the TGI [3] was 35.2 µM. It also gave a GI50 [4] of 21.3 µM, a TGI [4] of 41 µM and a GI50 [5] of 20.9 µM. The TGI [5] was 48.8 µM, the GI50 [6] was 56.6 µM and the TGI [6] was > 100 µM. The GI50 [7] was 15.4 µM and the TGI [7] was 29.3 µM.

With `C1=CC2SSSC2C1` (stereo unspecified) the TGI [1] was > 100 µM, the TGI [2] was > 100 µM and the TGI [3] was > 100 µM. The TGI [4] was > 100 µM, the TGI [8] was > 100 µM and the TGI [9] was > 100 µM. The TGI [5] was > 100 µM, the TGI [6] was > 100 µM and the TGI [7] was > 100 µM.

For `C[C@@H]1CC(=O)C2CCCC1C2=O` (stereo partly specified), the TGI [1] was > 100 µM, the TGI [2] was > 100 µM and the TGI [3] was > 100 µM. For the same compound, the TGI [4] was > 100 µM, the TGI [8] was > 100 µM and the TGI [5] was > 100 µM. For the same compound, the TGI [6] was > 100 µM and the TGI [7] was > 100 µM.

For `NCCCCN(CCCN)/[N+]([O-])=N\O`, the TGI [1] was > 100 µM, the TGI [2] was > 100 µM and the TGI [3] was > 100 µM. For the same compound, the TGI [4] was > 100 µM, the TGI [8] was > 100 µM and the TGI [9] was > 100 µM. For the same compound, the TGI [5] was > 100 µM and the TGI [7] was > 100 µM.

With `CC(C)C(Nc1c2ccccc2nc2ccccc12)C(=O)O` (stereo unspecified) the TGI [2] was > 100 µM, the TGI [3] was > 100 µM and the TGI [4] was > 100 µM. The TGI [8] was > 100 µM, the TGI [9] was > 100 µM and the TGI [5] was > 100 µM. The TGI [6] was > 100 µM and the TGI [7] was > 100 µM.

With `NS(=O)(=O)c1ccc(N=Nc2c(O)[nH]c3ccc(-c4cnco4)cc23)cc1` the GI50 [10] was > 25 µM, the TGI [10] was > 25 µM and the GI50 [3] was > 25 µM. The TGI [3] was > 25 µM, the GI50 [4] was > 25 µM and the TGI [4] was > 25 µM. The GI50 [8] was > 25 µM, the TGI [8] was > 25 µM and the GI50 [9] was > 25 µM. The TGI [9] was > 25 µM, the GI50 [5] was > 25 µM and the TGI [5] was > 25 µM. The GI50 [6] was > 25 µM, the TGI [6] was > 25 µM and the GI50 [7] was > 25 µM. The TGI [7] was > 25 µM.

In the case of `Nn1c(=O)n(Cc2ccccc2)n(-c2ccccc2)c1=O`, the TGI [2] is reported as > 100 µM, the TGI [3] is reported as > 100 µM and the TGI [4] is reported as > 100 µM. The TGI [8] was > 100 µM, the TGI [9] was > 100 µM and the TGI [5] was > 100 µM. For the same compound, the TGI [6] was > 100 µM and the TGI [7] was > 100 µM.

In the case of `O=C1CCN2C(=O)CCN12`, the TGI [2] is reported as > 100 µM, the TGI [3] is reported as > 100 µM and the TGI [4] is reported as > 100 µM. For the same compound, the TGI [8] was > 100 µM, the TGI [9] was > 100 µM and the TGI [5] was > 100 µM. For the same compound, the TGI [6] was > 100 µM and the TGI [7] was > 100 µM.

For `Oc1cccnc1CN1CCCCC1`, the TGI [10] was > 100 µM, the TGI [3] was > 100 µM and the TGI [4] was > 100 µM. For the same compound, the TGI [8] was > 100 µM, the TGI [9] was > 100 µM and the TGI [5] was > 100 µM. For the same compound, the TGI [6] was > 100 µM and the TGI [7] was > 100 µM.

For `COC(C(O)CO)C(O)C(O)C(=O)NNc1ccccc1` (stereo unspecified), the TGI [10] was > 100 µM, the TGI [3] was > 100 µM and the TGI [4] was > 100 µM. The TGI [8] was > 100 µM, the TGI [9] was > 100 µM and the TGI [5] was > 100 µM. For the same compound, the TGI [6] was > 100 µM and the TGI [7] was > 100 µM.

In the case of `COc1cc(C=C2C(=O)NC(=O)NC2=O)cc(OC)c1OC`, the TGI [1] is reported as > 100 µM, the TGI [2] is reported as > 100 µM and the TGI [3] is reported as > 100 µM. For the same compound, the TGI [4] was > 100 µM, the TGI [8] was > 100 µM and the TGI [9] was > 100 µM. For the same compound, the TGI [5] was > 100 µM, the TGI [6] was > 100 µM and the TGI [7] was > 100 µM.

With `O=C(O)C1OC(n2cc(F)c(=O)[nH]c2=O)CC1O` (stereo unspecified) the TGI [1] was > 100 µM, the TGI [10] was > 100 µM and the TGI [2] was > 100 µM. The TGI [3] was > 100 µM, the TGI [4] was > 100 µM and the TGI [8] was > 100 µM. For the same compound, the TGI [9] was > 100 µM, the TGI [5] was > 100 µM and the TGI [6] was > 100 µM. The TGI [7] was > 100 µM.

In the case of `CC1(C)C(=O)N(CCCCCCN2C(=O)C(C)(C)c3ccccc32)c2ccccc21`, the TGI [1] is reported as > 100 µM, the TGI [2] is reported as > 100 µM and the TGI [3] is reported as 75.8 µM. The TGI [4] was > 100 µM, the TGI [8] was 45.1 µM and the TGI [9] was > 100 µM. The TGI [5] was > 100 µM, the TGI [6] was > 100 µM and the TGI [7] was > 100 µM.

Compound `O=C(N/N=C/c1ccc(Cl)cc1)c1ccc(C(F)(F)F)nc1Nc1cccc(C(F)(F)F)c1` has a GI50 [10] of 2.98 µM, a TGI [10] of 10.2 µM and a GI50 [3] of 3.86 µM. It also gave a TGI [3] of 23 µM, a GI50 [4] of 3.2 µM and a TGI [4] of 13.7 µM. It also gave a GI50 [8] of 1.53 µM, a GI50 [9] of 2.58 µM and a TGI [9] of 7.91 µM. The GI50 [5] was 1.78 µM, the TGI [5] was 10.6 µM and the GI50 [6] was 2.85 µM. It also gave a TGI [6] of 16.8 µM, a GI50 [7] of 1.55 µM and a TGI [7] of 10.2 µM.

`O=C(NC1=CC(=O)c2ccccc2C1=O)c1ccccc1` was tested, and the GI50 [10] was 1.09 µM, the TGI [10] was 71.9 µM and the GI50 [3] was 1.7 µM. The TGI [3] was 3.27 µM, the GI50 [4] was 1.18 µM and the TGI [4] was 15.5 µM. For the same compound, the GI50 [8] was 0.355 µM, the TGI [8] was > 100 µM and the GI50 [9] was 0.534 µM. The TGI [9] was 15.7 µM, the GI50 [5] was 1.49 µM and the TGI [5] was 6.01 µM. It also gave a GI50 [6] of 2.71 µM, a TGI [6] of 5.38 µM and a GI50 [7] of 0.42 µM. It also gave a TGI [7] of 11.6 µM.

With `CCOC(=O)CC1(C(=O)OCC)c2[nH]c3ccccc3c2CCN1Cc1ccccc1` (stereo unspecified) the TGI [1] was 54.4 µM, the TGI [2] was > 100 µM and the TGI [3] was 37.3 µM. For the same compound, the TGI [4] was 39.5 µM, the TGI [9] was 32.8 µM and the TGI [5] was 27.8 µM. For the same compound, the TGI [6] was > 100 µM and the TGI [7] was 29 µM.

`COC(=O)[C@H](C)NC(=O)NC(=O)NC(=O)CI` gave a GI50 [10] of 21.4 µM, a TGI [10] of 54.1 µM and a GI50 [3] of 2.07 µM. The TGI [3] was 5.13 µM, the GI50 [4] was 16.7 µM and the TGI [4] was 36 µM. For the same compound, the GI50 [8] was 3.64 µM, the TGI [8] was 18.3 µM and the GI50 [9] was 15.4 µM. For the same compound, the TGI [9] was 29.9 µM, the GI50 [5] was 19.8 µM and the TGI [5] was 39.3 µM. For the same compound, the GI50 [6] was 16.9 µM, the TGI [6] was 30.6 µM and the GI50 [7] was 17.3 µM. The TGI [7] was 31.4 µM.

`N#C/C(=C1C=C(Br)/C(=N\O)C=C\1Cl)c1cccc2ccccc12` was tested, and the TGI [10] was 17.5 µM, the TGI [3] was 21.4 µM and the TGI [4] was 18 µM. It also gave a TGI [8] of 32.4 µM, a TGI [9] of 8.9 µM and a TGI [5] of 23.2 µM. The TGI [6] was 24.1 µM and the TGI [7] was 10.7 µM.
